10 molecules from US11530229B2, “Cyano cyclobutyl compounds for CBL-B inhibition and uses thereof” (Nurix Therapeutics, Inc., priority 2019, dated 2022) can be followed below.

Experiment [1] concerns the target Cbl-b (Homo sapiens (Human), UniProt Q13191). Briefly: Cbl-b displacement assay (Cbl-b inhibition assay), Biological Example 1. The experiment is classed as binding. The method, then:
Candidate compounds were evaluated for their ability to bind and inhibit Cbl-b, an E3 ubiquitin-protein ligase, as evidenced by their ability to displace a fluorophore-labeled probe (Example 59) bound to Cbl-b.
The ability of candidate compounds to displace a known inhibitor and thereby inhibit Cbl-b activity was measured by monitoring the interaction of Cbl-b with a fluorophore-labeled probe in the presence of the candidate compound. A truncated variant of Cbl-b (UniProt number Q13191; SEQ ID NO:1) containing an Avitag at its N-terminus was co-expressed with BirA biotin ligase and purified using a standard protocol (see Dou et al., Nature Structural and Molecular Biology, 8: 982-987, 2013; Avidity LLC).
Cbl-b Amino Acid Residues 36-427:
Fluorescently-labeled inhibitor probe was synthesized and tagged with BODIPY FL (Example 59). Cbl-b displacement assays were performed in a 384-well plate at room temperature in a 10 μL reaction volume by pre-incubating 0.5 nM Cbl-b or 0.125 nM Cbl-b (final concentration, indicated as “High” and “Low”, respectively) in an assay buffer containing 20 mM HEPES pH 7.5, 150 mM NaCl, 0.01% Triton X-100, 0.01% BSA and 0.5 mM TCEP in the presence of a candidate compound in 1% DMSO (final concentration) for 1 hour. After incubation in the presence of the candidate compound, the plate was incubated for an additional 1 hour in the presence of an approximate EC40 binding saturation consisting of 150 nM fluorescently-labeled inhibitor probe and 2 nM Streptavidin-Terbium (Cisbio) (final concentrations). Following the 1 hour incubation, the plates were read for TR-FRET signal at […] using an Envision plate reader (Perkin Elmer).

Experiment [2] relates to primary human total T-cells. The experiment can be described thus: T-cell activation, IL-2 secretion, Biological Example 2. The experiment is classed as cell-based. Conditions: 48 hours, fold change over baseline; for fold induction at 0.3 µM: 0.3 μM inhibitor; for fold induction at 1 µM: 1 μM inhibitor; for fold induction at 3 µM: 3 μM inhibitor.
For experiment [3], the system named is primary human total T-cells. The experiment can be described thus: T-cell activation, CD25 surface staining, Biological Example 2. The experiment is classed as cell-based. Conditions: 48 hours, fold change over baseline; for fold induction at 0.3 µM: 0.3 μM inhibitor; for fold induction at 1 µM: 1 μM inhibitor; for fold induction at 3 µM: 3 μM inhibitor.
Setting [4] is: 0.125 nM Cbl-b final concentration (Low), read-out: Cbl-b activity IC50 (Low).
Setting [5] is: anti-CD3 and anti-CD28 co-stimulation.
Where [6] appears, read: anti-CD3 and anti-CD28 co-stimulation, read-out: IL-2 secretion CD3/CD28 1 μM.
Where [7] appears, read: anti-CD3 stimulation alone, read-out: IL-2 secretion CD3 1 μM.
Setting [8] is: anti-CD3 and anti-CD28 co-stimulation, read-out: CD25 staining CD3/CD28 1 μM.
Where [9] appears, read: anti-CD3 stimulation alone, read-out: CD25 staining CD3 1 μM.
Where [10] appears, read: read-out: IC50 values in the Cbl-b inhibition assay of Biological Example 1.

Where two headings read alike, the source gives them in different places. Some results are limits rather than exact numbers.

Cbl-b, sequence (Q13191 36-427): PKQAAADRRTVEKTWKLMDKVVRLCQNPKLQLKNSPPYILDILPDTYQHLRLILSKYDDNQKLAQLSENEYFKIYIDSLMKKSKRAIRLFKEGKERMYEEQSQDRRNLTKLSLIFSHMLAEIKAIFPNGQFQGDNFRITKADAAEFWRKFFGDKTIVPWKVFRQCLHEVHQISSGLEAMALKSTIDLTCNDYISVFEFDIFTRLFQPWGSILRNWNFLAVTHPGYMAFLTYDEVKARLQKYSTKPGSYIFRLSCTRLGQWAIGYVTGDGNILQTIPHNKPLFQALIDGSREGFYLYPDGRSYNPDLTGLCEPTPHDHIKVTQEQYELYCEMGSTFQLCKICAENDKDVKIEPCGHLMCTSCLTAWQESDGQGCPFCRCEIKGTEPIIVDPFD

Consider `CN(Cc1cc2c(c(C(F)(F)F)c1)CN(c1cccc([C@]3(Cc4nncn4C)C[C@@H](C#N)C3)c1)C2=O)C1CCC(F)(F)C1` (stereo partly drawn) [Compound 32, (1r,3r)-3-(3-(6-(((3,3-difluorocyclopentyl)(methyl)amino)methyl)-1-oxo-4-(trifluoromethyl)isoindolin-2-yl)phenyl)-3-((4-methyl-4H-1,2,4-triazol-3-yl)methyl)cyclobutane-1-carbonitrile], for which the IC50 (usually the concentration that gives 50% inhibition) in experiment [1] (setting [4]) lay in the range of 2 to 5 nM. The fold induction at 0.3 µM in experiment [2] (setting [5]) was more than 20; in experiment [3] (setting [5]), more than 1.39. Further, the fold induction at 1 µM in experiment [2] (setting [6]) was more than 20; in experiment [2] (setting [7]) it was more than 0.85; in experiment [3] (setting [8]) it was more than 1.39; in experiment [3] (setting [9]) it was more than 1.15. The results for the fold induction at 3 µM in experiment [2] (anti-CD3 stimulation alone) and in experiment [3] (anti-CD3 stimulation alone) were more than 0.85 and more than 1.15, respectively.

On to `Cn1cnnc1C[C@]1(c2cccc(N3Cc4c(cc(CN5CCC6C(C5)C6(F)F)cc4C(F)(F)F)C3=O)c2)C[C@H](C#N)C1` (stereo partly drawn) [Compound 27, (1r,3r)-3-(3-(6-((7,7-difluoro-3-azabicyclo[4.1.0]heptan-3-yl)methyl)-1-oxo-4-(trifluoromethyl)isoindolin-2-yl)phenyl)-3-((4-methyl-4H-1,2,4-triazol-3-yl)methyl)cyclobutane-1-carbonitrile], for which the half-inhibitory concentration (IC50) in experiment [1] (setting [4]) is 2 to 5 nM. Besides, the fold induction at 0.3 µM in experiment [2] (setting [5]) was not above 15; in experiment [3] (setting [5]), not above 1.24. For the same molecule, the fold induction at 1 µM in experiment [2] (setting [6]) is not above 15; in experiment [2] (setting [7]), less than 0.4; in experiment [3] (setting [8]), not above 1.24; in experiment [3] (setting [9]), not above 1. The fold induction at 3 µM in experiment [2] (anti-CD3 stimulation alone) was 0.4 to 0.85; in experiment [3] (anti-CD3 stimulation alone) it was not above 1.

Turning to `Cn1cnnc1C[C@]1(c2cccc(N3Cc4c(cc(CN5CCc6ncccc6C5)cc4C(F)(F)F)C3=O)c2)C[C@H](C#N)C1` [Compound 28, (1r,3r)-3-(3-(6-((7,8-dihydro-1,6-naphthyridin-6(5H)-yl)methyl)-1-oxo-4-(trifluoromethyl)isoindolin-2-yl)phenyl)-3-((4-methyl-4H-1,2,4-triazol-3-yl)methyl)cyclobutane-1-carbonitrile], the IC50 in experiment [1] (setting [4]) was 2 to 5 nM. Besides, the figures for the fold induction at 0.3 µM in experiment [2] (setting [5]) and in experiment [3] (setting [5]) were not above 15 and not above 1.24, respectively. For the same molecule, the fold induction at 1 µM in experiment [2] (setting [6]) was not above 15; in experiment [2] (setting [7]), less than 0.4; in experiment [3] (setting [8]) it was not above 1.24; in experiment [3] (setting [9]) it was not above 1. The results for the fold induction at 3 µM in experiment [2] (anti-CD3 stimulation alone) and in experiment [3] (anti-CD3 stimulation alone) were less than 0.4 and not above 1, respectively.

Turning to `CC1COCCN(Cc2cc3c(c(C(F)(F)F)c2)CN(c2cccc([C@]4(Cc5nncn5C)C[C@@H](C#N)C4)c2)C3=O)C1` (stereo partly drawn) [Compound 35, (1r,3r)-3-(3-(6-((6-methyl-1,4-oxazepan-4-yl)methyl)-1-oxo-4-(trifluoromethyl)isoindolin-2-yl)phenyl)-3-((4-methyl-4H-1,2,4-triazol-3-yl)methyl)cyclobutane-1-carbonitrile], the IC50 in experiment [1] (setting [4]) fell in the range of 2 to 5 nM. The fold induction at 0.3 µM in experiment [2] (setting [5]) was in the range of 15 to 20; in experiment [3] (setting [5]), 1.24 to 1.39. Further, the fold induction at 1 µM in experiment [2] (setting [6]) was in the range of 15 to 20; in experiment [2] (setting [7]), 0.4 to 0.85; in experiment [3] (setting [8]), 1.24 to 1.39; in experiment [3] (setting [9]) it was 1 to 1.15. Also, the values for the fold induction at 3 µM in experiment [2] (anti-CD3 stimulation alone) and in experiment [3] (anti-CD3 stimulation alone) were 0.4 to 0.85 and 1 to 1.15, respectively.

Regarding `C[C@@H]1CN(Cc2cc3c(c(C(F)(F)F)c2)CN(c2cccc([C@]4(Cc5nncn5C)C[C@@H](C#N)C4)c2)C3=O)CCO1` [Compound 6, (1r,3r)-3-((4-methyl-4H-1,2,4-triazol-3-yl)methyl)-3-(3-(6-(((R)-2-methylmorpholino)methyl)-1-oxo-4-(trifluoromethyl)isoindolin-2-yl)phenyl)cyclobutane-1-carbonitrile], the 50% inhibitory concentration (IC50) in experiment [1] (setting [4]) and in experiment [1] (setting [10]) was 2 to 5 nM throughout. Besides, the fold induction at 0.3 µM in experiment [2] (setting [5]) is not above 15; in experiment [3] (setting [5]), not above 1.24. Also, the fold induction at 1 µM in experiment [2] (setting [6]) was not above 15; in experiment [2] (setting [7]) it was 0.4 to 0.85; in experiment [3] (setting [8]) it was not above 1.24; in experiment [3] (setting [9]) it was 1 to 1.15. Further, the fold induction at 3 µM was 0.4 to 0.85 in experiment [2] (anti-CD3 stimulation alone) and not above 1 in experiment [3] (anti-CD3 stimulation alone).

With `C[C@@H]1CN(Cc2cc3c(c(C(F)(F)F)c2)CN(c2cccc([C@]4(Cc5nncn5C)C[C@@H](C#N)C4)c2)C3=O)C[C@H](C)O1` [Compound 15, (1R,3r)-3-(3-(6-(((2R,6S)-2,6-dimethylmorpholino)methyl)-1-oxo-4-(trifluoromethyl)isoindolin-2-yl)phenyl)-3-((4-methyl-4H-1,2,4-triazol-3-yl)methyl)cyclobutane-1-carbonitrile], the IC50 in experiment [1] (setting [4]) was 2 to 5 nM. For the same molecule, the fold induction at 0.3 µM is not above 15 in experiment [2] (setting [5]) and 1.24 to 1.39 in experiment [3] (setting [5]). Moreover, the fold induction at 1 µM was 15 to 20 in experiment [2] (setting [6]), 0.4 to 0.85 in experiment [2] (setting [7]), 1.24 to 1.39 in experiment [3] (setting [8]) and 1 to 1.15 in experiment [3] (setting [9]). Also, the fold induction at 3 µM in experiment [2] (anti-CD3 stimulation alone) was more than 0.85; in experiment [3] (anti-CD3 stimulation alone), 1 to 1.15.

As for `Cc1cc(C(=O)Nc2cccc([C@]3(Cc4nncn4C)C[C@H](C#N)C3)c2)nc(C2CC2)n1` [Compound 2, N-(3-((1s,3s)-3-cyano-1-((4-methyl-4H-1,2,4-triazol-3-yl)methyl)cyclobutyl)phenyl)-2-cyclopropyl-6-methylpyrimidine-4-carboxamide], the half-inhibitory concentration (IC50) in experiment [1] (0.5 nM Cbl-b final concentration (High), read-out: Cbl-b activity IC50 (High)) lay within 2 to 5 nM; in experiment [1] (setting [10]), 2 to 5 nM. Also, the fold induction at 0.3 µM is not above 15 in experiment [2] (setting [5]) and not above 1.24 in experiment [3] (setting [5]). For the same molecule, the fold induction at 1 µM in experiment [2] (setting [6]) is not above 15; in experiment [2] (setting [7]), less than 0.4; in experiment [3] (setting [8]), not above 1.24; in experiment [3] (setting [9]), 1 to 1.15. Moreover, the fold induction at 3 µM was less than 0.4 in experiment [2] (anti-CD3 stimulation alone) and 1 to 1.15 in experiment [3] (anti-CD3 stimulation alone).

Take `Cn1cnnc1C[C@]1(c2cccc(N3Cc4c(cc(CNC5CC6(C5)CC6(F)F)cc4C(F)(F)F)C3=O)c2)C[C@H](C#N)C1` (stereo partly drawn) [Compound 23, (1r,3r)-3-(3-(6-(((1,1-difluorospiro[2.3]hexan-5-yl)amino)methyl)-1-oxo-4-(trifluoromethyl)isoindolin-2-yl)phenyl)-3-((4-methyl-4H-1,2,4-triazol-3-yl)methyl)cyclobutane-1-carbonitrile]: the IC50 in experiment [1] (setting [4]) and in experiment [1] (setting [10]) was 1 to 2 nM throughout. In addition, the values for the fold induction at 0.3 µM in experiment [2] (setting [5]) and in experiment [3] (setting [5]) were 15 to 20 and 1.24 to 1.39, respectively. Further, the fold induction at 1 µM lay in the range of 15 to 20 in experiment [2] (setting [6]), 0.4 to 0.85 in experiment [2] (setting [7]), 1.24 to 1.39 in experiment [3] (setting [8]) and 1 to 1.15 in experiment [3] (setting [9]). Also, the fold induction at 3 µM in experiment [2] (anti-CD3 stimulation alone) was 0.4 to 0.85; in experiment [3] (anti-CD3 stimulation alone) it was 1 to 1.15.

As for `CCC1COCCN(Cc2cc3c(c(C(F)(F)F)c2)CN(c2cccc([C@]4(Cc5nncn5C)C[C@@H](C#N)C4)c2)C3=O)C1` (stereo partly drawn) [Compound 43, (1r,3r)-3-(3-(6-((6-ethyl-1,4-oxazepan-4-yl)methyl)-1-oxo-4-(trifluoromethyl)isoindolin-2-yl)phenyl)-3-((4-methyl-4H-1,2,4-triazol-3-yl)methyl)cyclobutane-1-carbonitrile], the IC50 in experiment [1] (setting [4]) is 2 to 5 nM. For the same molecule, the fold induction at 0.3 µM in experiment [2] (setting [5]) was not above 15; in experiment [3] (setting [5]), not above 1.24. For the same molecule, the fold induction at 1 µM is more than 20 in experiment [2] (setting [6]), 0.4 to 0.85 in experiment [2] (setting [7]), not above 1.24 in experiment [3] (setting [8]) and 1 to 1.15 in experiment [3] (setting [9]). For the same molecule, the results for the fold induction at 3 µM in experiment [2] (anti-CD3 stimulation alone) and in experiment [3] (anti-CD3 stimulation alone) were 0.4 to 0.85 and 1 to 1.15, respectively.

Regarding `Cn1cnnc1C[C@]1(c2cccc(N3Cc4c(cc(CN5CCOCC6(CC6)C5)cc4C(F)(F)F)C3=O)c2)C[C@H](C#N)C1` [Compound 30, (1r,3r)-3-(3-(6-((5-oxa-8-azaspiro[2.6]nonan-8-yl)methyl)-1-oxo-4-(trifluoromethyl)isoindolin-2-yl)phenyl)-3-((4-methyl-4H-1,2,4-triazol-3-yl)methyl)cyclobutane-1-carbonitrile], the IC50 in experiment [1] (setting [4]) was 2 to 5 nM. Moreover, the fold induction at 0.3 µM in experiment [2] (setting [5]) was not above 15; in experiment [3] (setting [5]), not above 1.24. The fold induction at 1 µM in experiment [2] (setting [6]) is not above 15; in experiment [2] (setting [7]) it was less than 0.4; in experiment [3] (setting [8]), not above 1.24; in experiment [3] (setting [9]) it was not above 1. For the same molecule, the fold induction at 3 µM was less than 0.4 in experiment [2] (anti-CD3 stimulation alone) and 1 to 1.15 in experiment [3] (anti-CD3 stimulation alone).
